Results reported in US20250098679A1, “HERBICIDAL PYRIDONE DERIVATIVES” (SYNGENTA CROP PROTECTION AG, priority 2021, published 2025).

Legend:
Format in all cases: in vivo
Details in all cases: evaluated after 13 days
Setaria faberi (SETFA) [1] = assay: Post-emergence Test, Setaria faberi (SETFA); design: key to percentage damage caused to the plant, SETFA (five-point scale): 5=81-100%, 4=61-80%, 3=41-60%, 2=21-40%, 1=0-20% damage
Method in brief: (§1)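 Scores are percentage plant damage on a 1–5 scale (1=0-20%, 2=21-40%, 3=41-60%, 4=61-80%, 5=81-100%), read 13 days after treatment. Pots received a spray at 1000 g/ha unless otherwise stated, formulated in acetone/water (50:50) containing 0.5% Tween 20.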

[2] = tested on: Amaranthus palmeri (AMAPA); assay: Post-emergence Test, Amaranthus palmeri (AMAPA); design: key: 5=81-100%, 4=61-80%, 3=41-60%, 2=21-40%, 1=0-20% damage
Method in brief: as §1

[3] = tested on: Ipomoea hederacea (IPOHE); assay: Post-emergence Test, Ipomoea hederacea (IPOHE); design: key to percentage damage caused to the plant, IPOHE (five-point scale): 5=81-100%, 4=61-80%, 3=41-60%, 2=21-40%, 1=0-20% damage
Method in brief: as §1

[4] = tested on: Echinochloa crus-galli (ECHCG); assay: Post-emergence Test, Echinochloa crus-galli (ECHCG); design: key to percentage damage caused to the plant, ECHCG (five-point scale): 5=81-100%, 4=61-80%, 3=41-60%, 2=21-40%, 1=0-20% damage
Method in brief: as §1

[5] = tested on: Amaranthus retoflexus (AMARE); assay: Pre-emergence Test, Amaranthus retoflexus (AMARE)
[6] = tested on: Ipomoea hederacea (IPOHE); assay: Pre-emergence Test, Ipomoea hederacea (IPOHE)
[7] = tested on: Echinochloa crus-galli (ECHCG); assay: Pre-emergence Test, Echinochloa crus-galli (ECHCG)
[8] = tested on: Amaranthus palmeri (AMAPA); assay: Pre-emergence Test, Amaranthus palmeri (AMAPA)
Zea mays (ZEAMX) [9] = assay: Post-emergence Test, Zea mays (ZEAMX); design: key to percentage damage caused to the plant, ZEAMX (five-point scale): 5=81-100%, 4=61-80%, 3=41-60%, 2=21-40%, 1=0-20% damage
Method in brief: as §1

Zea mays (ZEAMX) [10] = assay: Pre-emergence Test, Zea mays (ZEAMX)
[11] = tested on: Amaranthus retoflexus (AMARE); assay: Post-emergence Test, Amaranthus retoflexus (AMARE); design: key to percentage damage caused to the plant, AMARE (five-point scale): 5=81-100%, 4=61-80%, 3=41-60%, 2=21-40%, 1=0-20% damage
Method in brief: as §1

Setaria faberi (SETFA) [12] = assay: Pre-emergence Test, Setaria faberi (SETFA)

Structure (SMILES)	percentage damage caused to the plant, SETFA (five-point scale) (Setaria faberi (SETFA) [1]; 250 g/Ha)	percentage damage caused to the plant, SETFA (five-point scale) (Setaria faberi (SETFA) [1]; 1000 g/ha)	percentage damage caused to the plant, AMAPA (five-point scale) ([2]; 250 g/Ha)	percentage damage caused to the plant, AMAPA (five-point scale) ([2]; 1000 g/ha)	percentage damage caused to the plant, IPOHE (five-point scale) ([3]; 250 g/Ha)	percentage damage caused to the plant, IPOHE (five-point scale) ([3]; 1000 g/ha)	percentage damage caused to the plant, ECHCG (five-point scale) ([4]; 250 g/Ha)	percentage damage caused to the plant, ECHCG (five-point scale) ([4]; 1000 g/ha)	Pre-emergence Test AMARE, percentage damage caused to the plant (five-point scale) ([5]; 1000 g/ha)	Pre-emergence Test IPOHE, percentage damage caused to the plant (five-point scale) ([6]; 1000 g/ha)	Pre-emergence Test ECHCG, percentage damage caused to the plant (five-point scale) ([7]; 1000 g/ha)	Pre-emergence Test AMAPA, percentage damage caused to the plant (five-point scale) ([8]; 1000 g/ha)	percentage damage caused to the plant, ZEAMX (five-point scale) (Zea mays (ZEAMX) [9]; 250 g/Ha)	percentage damage caused to the plant, ZEAMX (five-point scale) (Zea mays (ZEAMX) [9]; 1000 g/ha)	Pre-emergence Test ZEAMX, percentage damage caused to the plant (five-point scale) (Zea mays (ZEAMX) [10]; 1000 g/ha)	percentage damage caused to the plant, AMARE (five-point scale) ([11]; 250 g/Ha)	percentage damage caused to the plant, AMARE (five-point scale) ([11]; 1000 g/ha)	Pre-emergence Test SETFA, percentage damage caused to the plant (five-point scale) (Setaria faberi (SETFA) [12]; 1000 g/ha)	Pre-emergence Test AMARE, percentage damage caused to the plant (five-point scale) ([5]; 250 g/Ha (*))	Pre-emergence Test IPOHE, percentage damage caused to the plant (five-point scale) ([6]; 250 g/Ha (*))	also measured
CCn1c(Cn2ccc(C(F)(F)F)n2)cc(=O)c(C(=O)O)c1-c1cccc(Cl)c1 [Compound 25, 2-(3-chlorophenyl)-1-ethyl-4-oxo-6-[[3-(trifluoromethyl)pyrazol-1-yl]methyl]pyridine-3-carboxylic acid]	4 (4=61-80%)	4 (4=61-80%)	2 (2=21-40%)	2 (2=21-40%)	4 (4=61-80%)	4 (4=61-80%)	3 (3=41-60%)	4 (4=61-80%)	2 (2=21-40%)	1 (1=0-20%)	5 (5=81-100%)	2 (2=21-40%)	0	3 (3=41-60%)	1 (1=0-20%)	2 (2=21-40%)	2 (2=21-40%)	5 (5=81-100%)	–	–	–
CCn1c(Cn2nc(C(F)(F)F)cc2OC(F)F)cc(=O)c(C(=O)O)c1-c1ccc(Cl)c(Cl)c1 [Compound 151, 2-(3,4-dichlorophenyl)-6-[[5-(difluoromethoxy)-3-(trifluoromethyl)pyrazol-1-yl]methyl]-1-ethyl-4-oxo-pyridine-3-carboxylic acid]	4 (4=61-80%)	4 (4=61-80%)	1 (1=0-20%)	2 (2=21-40%)	4 (4=61-80%)	4 (4=61-80%)	3 (3=41-60%)	4 (4=61-80%)	0	4 (4=61-80%)	5 (5=81-100%)	1 (1=0-20%)	1 (1=0-20%)	3 (3=41-60%)	2 (2=21-40%)	1 (1=0-20%)	3 (3=41-60%)	5 (5=81-100%)	0	2 (2=21-40%)	Pre-emergence Test ECHCG, percentage damage caused to the plant (five-point scale) ([7]; 250 g/Ha (*)): 5 (5=81-100%); Pre-emergence Test AMAPA, percentage damage caused to the plant (five-point scale) ([8]; 250 g/Ha (*)): 0; Pre-emergence Test ZEAMX, percentage damage caused to the plant (five-point scale) (Zea mays (ZEAMX) [10]; 250 g/Ha (*)): 2 (2=21-40%); Pre-emergence Test SETFA, percentage damage caused to the plant (five-point scale) (Setaria faberi (SETFA) [12]; 250 g/Ha (*)): 5 (5=81-100%)
CCn1c(Cn2cc(F)cn2)cc(=O)c(C(=O)O)c1-c1ccc(Cl)c(Cl)c1 [Compound 9, 2-(3,4-dichlorophenyl)-1-ethyl-6-[(4-fluoropyrazol-1-yl)methyl]-4-oxo-pyridine-3-carboxylic acid]	4 (4=61-80%)	3 (3=41-60%)	0	1 (1=0-20%)	3 (3=41-60%)	1 (1=0-20%)	3 (3=41-60%)	4 (4=61-80%)	1 (1=0-20%)	0	5 (5=81-100%)	2 (2=21-40%)	0	2 (2=21-40%)	0	0	0	5 (5=81-100%)	0	1 (1=0-20%)	Pre-emergence Test ECHCG, percentage damage caused to the plant (five-point scale) ([7]; 250 g/Ha (*)): 5 (5=81-100%); Pre-emergence Test AMAPA, percentage damage caused to the plant (five-point scale) ([8]; 250 g/Ha (*)): 1 (1=0-20%); Pre-emergence Test ZEAMX, percentage damage caused to the plant (five-point scale) (Zea mays (ZEAMX) [10]; 250 g/Ha (*)): 0; Pre-emergence Test SETFA, percentage damage caused to the plant (five-point scale) (Setaria faberi (SETFA) [12]; 250 g/Ha (*)): 5 (5=81-100%)
CCn1c(Cn2nc(C)cc2Cl)cc(=O)c(C(=O)O)c1-c1ccc(Cl)c(Cl)c1 [Compound 17, 6-[(5-chloro-3-methyl-pyrazol-1-yl)methyl]-2-(3,4-dichlorophenyl)-1-ethyl-4-oxo-pyridine-3-carboxylic acid]	3 (3=41-60%)	4 (4=61-80%)	5 (5=81-100%)	5 (5=81-100%)	3 (3=41-60%)	5 (5=81-100%)	4 (4=61-80%)	4 (4=61-80%)	2 (2=21-40%)	3 (3=41-60%)	4 (4=61-80%)	5 (5=81-100%)	2 (2=21-40%)	3 (3=41-60%)	2 (2=21-40%)	5 (5=81-100%)	3 (3=41-60%)	4 (4=61-80%)	–	–	–
CCn1c(Cn2nc(C)cc2OC(F)F)cc(=O)c(C(=O)O)c1-c1ccc(Cl)c(Cl)c1 [Compound 150, 2-(3,4-dichlorophenyl)-6-[[5-(difluoromethoxy)-3-methyl-pyrazol-1-yl]methyl]-1-ethyl-4-oxo-pyridine-3-carboxylic acid]	4 (4=61-80%)	4 (4=61-80%)	0	1 (1=0-20%)	4 (4=61-80%)	2 (2=21-40%)	2 (2=21-40%)	4 (4=61-80%)	1 (1=0-20%)	4 (4=61-80%)	5 (5=81-100%)	2 (2=21-40%)	1 (1=0-20%)	3 (3=41-60%)	3 (3=41-60%)	0	2 (2=21-40%)	5 (5=81-100%)	0	1 (1=0-20%)	Pre-emergence Test ECHCG, percentage damage caused to the plant (five-point scale) ([7]; 250 g/Ha (*)): 4 (4=61-80%); Pre-emergence Test AMAPA, percentage damage caused to the plant (five-point scale) ([8]; 250 g/Ha (*)): 1 (1=0-20%); Pre-emergence Test ZEAMX, percentage damage caused to the plant (five-point scale) (Zea mays (ZEAMX) [10]; 250 g/Ha (*)): 1 (1=0-20%); Pre-emergence Test SETFA, percentage damage caused to the plant (five-point scale) (Setaria faberi (SETFA) [12]; 250 g/Ha (*)): 5 (5=81-100%)
